Here are results for three molecules from patent EP0289204B1, “Lithium salt-containing pharmaceutical compositions” (EFAMOL HOLDINGS PLC, priority 1987, dated 1988).

A short description of series [1]: Partition of lithium between water and chloroform/methanol (experiment A), lithium determined by flame photometry. Conditions: 50 ml distilled water shaken with 250 ml chloroform/methanol (2/l by volume); range of five repeats. Type of series: physicochemical. The procedure: Each 50 ml water contained 11.4 mg lithium.
How the values of series [2] were obtained:
Each 50 ml water contained 11.4 mg lithium. Each aqueous solution was then shaken with 250 ml of chloroform/methanol (2/l by volume). The chloroform/methanol fraction was then separated off and evaporated to dryness under a stream of nitrogen. The mass of dry extract from the chloroform/methanol phase was weighed and its lithium content determined by flame photometry. The lithium content of the aqueous phase was also measured by flame photometry. • (B) 1 g of pure gamma-linolenic acid was dissolved in 10 ml of chloroform/methanol (2/l by volume). The resulting solution was then thoroughly shaken with 50 ml distilled water. The chloroform/methanol phase was then separated off and evaporated to dryness in a stream of nitrogen and the mass of dry extract was weighed.

Setting [3] is: 1 g in 10 ml chloroform/methanol (2/l by volume) shaken with 50 ml distilled water, range of five repeats.
The mark [4] stands for this setting: fatty acid salt, taken as equivalent to the percentage of lithium (experiment A).

Where two headings read alike, the source gives them in different places.

Consider `[Cl-].[Li+]` [Lithium chloride, reference compound], for which the “Percentage of total lithium in: Chloroform/methanol phase” value in series [1] is reported as 1-5%.

Take `CCCCC/C=C\C/C=C\C/C=C\CCCCC(=O)O` [Gamma-linolenic acid, reference compound]: in series [2] (setting [3]), the “Percentage of total fatty acid/ fatty acid salt* in: Aqueous phase” value is reported as 2-9% and the “Percentage of total fatty acid/ fatty acid salt* in: Chloroform/methanol phase” value is given as 91-98%.

Broadly, the solubility is how much of the substance goes into solution per volume. As for `CCCCC/C=C\C/C=C\C/C=C\CCCCC(=O)[O-].[Li+]` [Lithium gammalinolenate, Lithium gamma-linolenate], in series [1], the “Percentage of total lithium in: Aqueous phase” value was 11-17% and the “Percentage of total lithium in: Chloroform/methanol phase” value is given as 83-89%. Moreover, in series [2] (setting [4]), the “Percentage of total fatty acid/ fatty acid salt* in: Aqueous phase” value was 11-17% and the “Percentage of total fatty acid/ fatty acid salt* in: Chloroform/methanol phase” value is reported as 83-89%. Also, the solubility in the series “physchem” (alcohol, organic solvent or mixture) is greater than 30 mg/mL. In addition, the solubility in the series “physchem” (water) was greater than 30 mg/mL.
